Data from paper PMC11989707, “Synthesis, Characterization, and Preliminary In Vitro Anticancer Activity of Zinc Complexes Containing Amino Acid-Derived Imidazolium-Based Dicarboxylate Ligands” (International Journal of Molecular Sciences, 2025).
Read-outs that look alike come from different tables or passages of the source.

Assays:
[1] = test system: HaCaT cells (human keratinocytes); assay: Resazurin cell viability assay, non-malignant keratinocytes; format: cell-based; conditions: resazurin
Description: (§1) The cytotoxicity of complexes 2 was evaluated in vitro by determining the half inhibitory concentrations (IC50) against four human cell lines: wild-type BRAF melanoma (MeWo), lung adenocarcinoma (A549), bladder cancer (T24), and non-cancerous skin keratinocytes (HaCaT). The IC50 values were calculated from cell viability values obtained after 72 h of exposure of the drug to cells using the resazurin assay. The viability results, summarized in Table 1 (as μM concentrations) and illustrated in Figure 4, also include the values of the selectivity index (SI). The SI was calculated by dividing the IC50 value in the non-cancerous cells by that in the cancer cells. The higher the SI value, the higher the selectivity of the compound against cancer cells. This parameter also allows for a comparison of the selectivity of the investigated compound with the selectivity of the standard anticancer drug. For comparison, the cytotoxicity of two clinical anticancer drugs, carboplatin and gemcitabine, as well as imidazolium dicarboxylate precursor ligands (HL^R, 1) was evaluated under identical experimental conditions (see viability graphs in Figure 4 and Figure S7). […] Two noteworthy observations can be drawn from Table 1. […] Carboplatin is used for the treatment of ovarian cancer, lung cancer, bladder cancer, and head and neck cancer. Second, these zinc-based complexes were more cytotoxic to cancer cells than to non-malignant HaCaT cells, underscoring their potential therapeutic selectivity.
(§2) HaCaT cells (human keratinocytes) A549 (human lung adenocarcinoma), MeWo (human melanoma), and T24 (human urinary bladder carcinoma) were purchased from Cell Lines Service (CLS). The cells were maintained in Dulbecco’s Modified Eagle Medium (DMEM) supplemented with 10% fetal bovine serum and 1% penicillin/streptomycin. All cell lines were cultured at 37 °C and 5% CO2 with saturating humidity.
(§3) The resazurin assay is a commonly used colorimetric/fluorescent method to assess cell viability. This approach is based on the ability of living cells to convert the blue dye resazurin into the pink soluble resorufin product. The number of viable cells is directly correlated with the amount of resorufin generated. Between 3000 and 6000 cells per well were seeded in 96-well plates and allowed to grow for 24 h. […] The compounds were dissolved in sterile water to prepare a stock solution. Working solutions were obtained by serial dilution in the culture medium and were used immediately to treat the cells. Following this treatment period, the cells were rinsed once with phosphate buffered saline (PBS), and 150 μL of resazurin solution (20 µg/mL in medium) was added to each well. The plates were then incubated for 4–5 h at 37 °C with 5% CO2. Finally, absorbance was measured at 540 and 620 nm using a multiwell plate spectrophotometer (Imark Bio Rad Laboratories Inc., Hercules, CA, USA). The results were reported as percentages of cell viability compared to untreated controls. All data represent the mean ± standard error of the mean (SEM) of at least three independent experiments. The selectivity index (SI) values for each cancer cell line were determined by calculating the ratio of the IC50 value in the non-malignant HaCaT cell line to the IC50 value in the corresponding cancer cell line, based on data from each independent experiment.

[2] = test system: A549 (human lung adenocarcinoma); assay: Resazurin cell viability assay, lung adenocarcinoma; format: cell-based; conditions: for IC50: resazurin
Description: as §1, §2, §3

MeWo (human melanoma) = assay: Resazurin cell viability assay, melanoma; format: cell-based; conditions: for IC50: resazurin; for Selectivity Index MeWo: IC50 HaCaT / IC50 MeWo
Description: as §1, with “The IC50 values were calculated from cell viability values obtained after 72 h of exposure of the drug to cells using the resazurin assay.” left out
as §2, §3

[3] = test system: T24 (human urinary bladder carcinoma); assay: Resazurin cell viability assay, bladder cancer; format: cell-based; conditions: for IC50: resazurin
Description: as §1, with “The IC50 values were calculated from cell viability values obtained after 72 h of exposure of the drug to cells using the resazurin assay.” left out
as §2, §3

[4] = Resazurin cell viability assay, non-malignant keratinocytes; format: cell-based, human; conditions: human, HaCaT keratinocytes (non-malignant); HaCaT, highest concentrations tested, 72 h (Figure 4); read-out: viability of non-malignant cells
Description: as §1, §2, §3

[5] = Homo sapiens, HaCaT, 96 h, mean ± SEM (Table S3), read-out: IC50 HaCaT (Non-malignant keratinocyte)
[6] = Homo sapiens, A549, 96 h, mean ± SEM (Table S3)
[7] = IC50 HaCaT / IC50 A549, 96 h, mean ± SEM (Table S3)
[8] = Homo sapiens, MeWo, 96 h, mean ± SEM (Table S3)
[9] = Homo sapiens, 96 h, mean ± SEM (Table S3)
[10] = IC50 HaCaT / IC50 T24, 96 h, mean ± SEM (Table S3)
[11] = 96 h, mean ± SEM (Table S3), read-out: IC50 HaCaT (Non-malignant keratinocyte)
[12] = IC50 HaCaT / IC50 A549, 72 h, mean ± SEM
[13] = IC50 HaCaT / IC50 T24, 72 h, mean ± SEM

| Compound | IC50 [2, 6] | IC50 (MeWo (human melanoma); [8]) | IC50 [3, 9] | IC50 [1, 5] | Selectivity Index A549 [2, 7] | Selectivity Index MeWo (MeWo (human melanoma); 96 h, mean ± SEM (Table S3)) | Selectivity Index T24 [3, 10] | further results |
| --- | --- | --- | --- | --- | --- | --- | --- | --- |
| O=c1[nH]cc(F)c(=O)[nH]1 [5-Fluorouracil] | 1900 ± 700 nM | 1300 nM | 6300 ± 600 nM | 400 nM | 0.3 ± 0.1 | 0.3 ± 0.0 | 0.1 ± 0.0 |  |
| N.N.O=C([O-])C1(C(=O)[O-])CCC1.[Pt+2] [Carboplatin] |  |  |  |  | 0.6 ± 0.2 | 0.6 ± 0.2 |  | IC50 ([1]; 72 h, mean ± SEM, monomer molecular weight used, read-out: IC50 HaCaT (Non-Malignant Keratinocyte)): 35900 ± 3800 nM; IC50 [1, 11]: 11400 ± 1000 nM; IC50 ([2]; 72 h, mean ± SEM): 42900 ± 1400 nM; IC50 ([2]; 96 h, mean ± SEM (Table S3)): 21100 ± 4000 nM; Selectivity Index A549 [2, 12]: 0.8 ± 0.1; IC50 (MeWo (human melanoma); 72 h, mean ± SEM): 100000 ± 17400 nM; IC50 (MeWo (human melanoma); 96 h, mean ± SEM (Table S3)): 23000 ± 5500 nM; Selectivity Index MeWo (MeWo (human melanoma); 72 h, mean ± SEM): 0.4 ± 0.0; IC50 ([3]; 72 h, mean ± SEM): 22100 ± 2600 nM; IC50 ([3]; 96 h, mean ± SEM (Table S3)): 7300 ± 1100 nM; Selectivity Index T24 [3, 13]: 1.7 ± 0.2 |
| N.N.[Cl][Pt][Cl] [Cisplatin] |  |  |  |  | 0.6 ± 0.1 | 1.0 ± 0.0 | 1.3 ± 0.0 | IC50 [1, 11]: 2200 ± 500 nM; IC50 ([2]; 96 h, mean ± SEM (Table S3)): 3800 ± 100 nM; IC50 (MeWo (human melanoma); 96 h, mean ± SEM (Table S3)): 2200 ± 600 nM; IC50 ([3]; 96 h, mean ± SEM (Table S3)): 1600 ± 400 nM |
| Nc1ccn([C@@H]2O[C@H](CO)[C@@H](O)C2(F)F)c(=O)n1 [Gemcitabine] | 1.9 ± 1.5 nM | 1.9 ± 1.5 nM | 1.7 ± 1.5 nM | 10.6 ± 4.3 nM | 5.1 ± 0.3 | 5.1 ± 0.2 | 6.5 ± 1.4 | viability at 72 h [4]: 13%; IC50 ([1]; Homo sapiens, HaCaT, 72 h, mean ± SEM, read-out: IC50 HaCaT (Non-Malignant Keratinocyte)): 22.1 ± 3.1 nM; IC50 ([2]; Homo sapiens, A549, 72 h, mean ± SEM): 5.6 ± 0.1 nM; Selectivity Index A549 [2, 12]: 4.0 ± 0.5; IC50 (MeWo (human melanoma); Homo sapiens, MeWo, 72 h, mean ± SEM): 7.3 ± 0.7 nM; Selectivity Index MeWo (MeWo (human melanoma); 72 h, mean ± SEM): 3.3 ± 0.8; cell viability of melanoma cells (MeWo (human melanoma); MeWo, highest concentrations tested, 72 h (Figure 4)): ≥ 35%; IC50 ([3]; Homo sapiens, 72 h, mean ± SEM): 2.3 ± 0.3 nM; Selectivity Index T24 [3, 13]: 9.3 ± 0.4 |

Continued, in another order:

| IC50 [2, 6] | IC50 (MeWo (human melanoma); [8]) | IC50 [3, 9] | Compound | IC50 [1, 5] | Selectivity Index A549 [2, 7] | Selectivity Index MeWo (MeWo (human melanoma); 96 h, mean ± SEM (Table S3)) | Selectivity Index T24 [3, 10] | further results |
| --- | --- | --- | --- | --- | --- | --- | --- | --- |
| 38.4 ± 6.6 nM | 15.3 ± 3.6 nM | 29.8 ± 2 nM | COc1cccc2c1C(=O)c1c(O)c3c(c(O)c1C2=O)C[C@@](O)(C(=O)CO)C[C@@H]3O[C@H]1C[C@H](N)[C@H](O)[C@H](C)O1 [Doxorubicin] | 8.1 nM | 0.2 ± 0.0 | 0.6 ± 0.1 | 0.3 ± 0.0 |  |
| 3.5 ± 0.9 nM | 0.7 nM | 1.4 ± 0.3 nM | CC(=O)O[C@H]1C(=O)[C@@]2(C)[C@H]([C@H](OC(=O)c3ccccc3)[C@]3(O)C[C@H](OC(=O)[C@H](O)[C@@H](NC(=O)c4ccccc4)c4ccccc4)C(C)=C1C3(C)C)[C@]1(OC(C)=O)CO[C@@H]1C[C@@H]2O [Paclitaxel] | 0.3 nM | 0.1 ± 0.0 | 0.5 ± 0.0 | 0.3 ± 0.1 |  |
| 1500 ± 700 nM | 900 ± 400 nM | 1900 ± 1100 nM | CCN(CC)CCNC(=O)c1c(C)[nH]c(/C=C2\C(=O)Nc3ccc(F)cc32)c1C [Sunitinib] | 1000 ± 100 nM | 1.2 ± 0.6 | 1.5 ± 0.5 | 1.5 ± 0.8 |  |
